System: A-549 cells
Assay: Cell cycle distribution by flow cytometry, cells synchronized with double-thymidine block
Assay type: cell-based, human
Settings: synchronized A-549, IC90, prolonged exposure (up to 10 h)
Experimental: Promising antiproliferative properties of PCH-1 led us to further investigate the effect of this compound on cell cycle distribution. Therefore, cell cycle progression was analyzed by quantifying DNA content using flow cytometry. […] To thoroughly analyze the course of the cycle, A-549 cells were synchronized with a double-thymidine block in the G1 phase and treated with IC90 concentration of PCH-1 for the indicated time. Slight alterations of the division cycle were visible after 2 h of incubation with the compound.
Cells were seeded onto tissue culture plates and allowed to attach for 24 h. Unsynchronized cells were treated with PCH-1 or Etoposide at IC90 concentration for 24 and 48 h, while synchronized cells were treated with PCH-1 or Etoposide at IC90 concentration for 2, 4, 6, 8, and 10 h. Synchronization of the cells was performed as described previously by Chen et al.[77]. Next, the cells were trypsinized, fixed in ice-cold 75% ethanol, and stored overnight at − 20 °C. After centrifugation, the cells were rinsed with PBS and stained with […] PI (Sigma-Aldrich) and […] RNaseA (Thermo Fisher) in PBS for 30 min at RT. The distribution of the cells in different phases of the cell cycle was determined by flow cytometry (Guava EasyCyte 8 cell sorter, Merck Millipore) and FlowJo software v10. Each experiment was repeated independently three times.

COc1ccc(C2CC(c3cc4c(cc3OC)OCO4)=NN2C(C)=O)cc1 (stereo not shown) [PCH-1, 1-[3-(6-methoxy-2H-1,3-benzodioxol-5-yl)-5-(4-methoxyphenyl)-4,5-dihydro-1H-pyrazol-1-yl]ethan-1-one]
increase in G2/M population as compared to control: 50.12%
